In US9499550B2 (BRISTOL-MYERS SQUIBB COMPANY, priority 2012, dated 2016) one finds EC50 data, which are given here for twelve molecules.

Some results are limits rather than exact numbers.

For assay [1], the system named is HCV genotype 1a (H77 strain) replicon in HUH-7 cells. The assay is described as follows: HCV replicon luciferase reporter assay, genotype 1a. As to conditions: Hepatitis C virus, Huh-7, 72 h, HCV genotype 1a replicon luciferase assay, 3 days incubation, range class, read-out: LE_1a (EC50, range). It counts as cell-based. In a few lines:
(§1)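 Replicon inhibition for both genotypes was measured as Renilla luciferase signal (EnduRen, 7.5 μM final, 2 h) after 3-day, 37° C exposure of replicon-bearing HUH-7 cells in 4% FCS DMEM, 0.5% DMSO. The 1b construct carries S1179I; the 1a H77 construct carries P1496L and S2204I. Twenty-point, 3-fold dilutions were fitted four-parametrically for EC50, and CC50 was taken from multiplexed Cell Titer-Blue.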

The subject of assay [2] is HCV genotype 1b (Con1) replicon in HUH-7 cells. The assay is described as follows: HCV replicon luciferase reporter assay, genotype 1b. The conditions noted are these: Hepatitis C virus, Huh-7, 72 h, HCV genotype 1b replicon luciferase assay, 3 days incubation, range class, read-out: LE_1b (EC50, range). The class given is cell-based. In a few lines: as §1
(In general: Replicon systems follow genome replication, usually without infectious particles.)

Regarding `CC(C)Oc1cc2c(Cl)cccc2c(O[C@@H]2C[C@H]3C(=O)N[C@]4(C(=O)NS(=O)(=O)C5CC5)C[C@H]4/C=C\CC[C@H](C)C[C@@H](C)[C@H](NC(=O)OC(C)(C)C(C)(F)F)C(=O)N3C2)n1` [Compound 1105, 3,3-difluoro-2-methylbutan-2-yl((2R,6S,7R,9S,13aS,14aR,16aS,Z)-2-((5-chloro-3-isopropoxyisoquinolin-1-yl)oxy)-14a-((cyclopropylsulfonyl)carbamoyl)-7,9-dimethyl-5,16-dioxo-1,2,3,5,6,7,8,9,10,11,13a,14,14a,15,16,16a-hexadecahydrocyclopropa[e]pyrrolo[1,2-a][1,4]diazacyclopentadecin-6-yl)carbamate], the concentration giving a half-maximal response (EC50) in assay [1] and in assay [2] was < 5.46 nM each time.

For `CC(C)Oc1cc2c(Cl)cccc2c(O[C@@H]2C[C@H]3C(=O)N[C@]4(C(=O)NS(=O)(=O)C5CC5)C[C@H]4/C=C\CC[C@@H](C)C[C@@H](C)[C@H](NC(=O)OC(C)(C)C(C)(F)F)C(=O)N3C2)n1` [Compound 1106, 3,3-difluoro-2-methylbutan-2-yl((2R,6S,7R,9R,13aS,14aR,16aS,Z)-2-((5-chloro-3-isopropoxyisoquinolin-1-yl)oxy)-14a-((cyclopropylsulfonyl)carbamoyl)-7,9-dimethyl-5,16-dioxo-1,2,3,5,6,7,8,9,10,11,13a,14,14a,15,16,16a-hexadecahydrocyclopropa[e]pyrrolo[1,2-a][1,4]diazacyclopentadecin-6-yl)carbamate], the concentration giving a half-maximal response (EC50) in assay [1] and in assay [2] was < 5.46 nM each time.

As for `C[C@H]1CC/C=C\[C@@H]2C[C@@]2(C(=O)NS(=O)(=O)C2(C)CC2)NC(=O)[C@@H]2C[C@@H](Oc3nc(OCC(F)F)cc4c(Cl)cccc34)CN2C(=O)[C@@H](NC(=O)O[C@H](C)C(F)(F)F)[C@H](C)C1` [Compound 1107, (R)-1,1,1-trifluoropropan-2-yl ((2R,6S,7R,9S,13aS,14aR,16aS,Z)-2-((5-chloro-3-(2,2-difluoroethoxyl)isoquinolin-1-yl)oxy)-7,9-dimethyl-14a-(((1-methylcyclopropyl)sulfonyl)carbamoyl)-5,16-dioxo-1,2,3,5,6,7,8,9,10,11,13a,14,14a,15,16,16a-hexadecahydrocyclopropa[e]pyrrolo[1,2-a][1,4]diazacyclopentadecin-6-yl)carbamate], the results for the EC50 in assay [1] and in assay [2] were 4.82 to 103 nM and < 5.46 nM, respectively.

Turning to `C[C@@H]1CC/C=C\[C@@H]2C[C@@]2(C(=O)NS(=O)(=O)C2(C)CC2)NC(=O)[C@@H]2C[C@@H](Oc3nc(OCC(F)F)cc4c(Cl)cccc34)CN2C(=O)[C@@H](NC(=O)O[C@H](C)C(F)(F)F)[C@H](C)C1` [Compound 1108, (R)-1,1,1-trifluoropropan-2-yl ((2R,6S,7R,9R,13aS,14aR,16aS,Z)-2-((5-chloro-3-(2,2-difluoroethoxyl)isoquinolin-1-yl)oxy)-7,9-dimethyl-14a-(((1-methylcyclopropyl)sulfonyl)carbamoyl)-5,16-dioxo-1,2,3,5,6,7,8,9,10,11,13a,14,14a,15,16,16a-hexadecahydrocyclopropa[e]pyrrolo[1,2-a][1,4]diazacyclopentadecin-6-yl)carbamate], the EC50 in assay [1] and in assay [2] was < 5.46 nM each time.

As to `C[C@@H]1CC/C=C\[C@@H]2C[C@@]2(C(=O)NS(=O)(=O)C2(C)CC2)NC(=O)[C@@H]2C[C@@H](Oc3nc(OCC(F)F)cc4c(Cl)cccc34)CN2C(=O)[C@@H](NC(=O)OC(C)(C)C(C)(F)F)[C@H](C)C1` [Compound 1110, 3,3-difluoro-2-methylbutan-2-yl((2R,6S,7R,9R,13aS,14aR,16aS,Z)-2-((5-chloro-3-(2,2-difluoroethoxyl)isoquinolin-1-yl)oxy)-7,9-dimethyl-14a-(((1-methylcyclopropyl)sulfonyl)carbamoyl)-5,16-dioxo-1,2,3,5,6,7,8,9,10,11,13a,14,14a,15,16,16a-hexadecahydrocyclopropa[e]pyrrolo[1,2-a][1,4]diazacyclopentadecin-6-yl)carbamate], the concentration giving a half-maximal response (EC50) in assay [1] and in assay [2] was < 5.46 nM in each case.

As for `C[C@H]1CC/C=C\[C@@H]2C[C@@]2(C(=O)NS(=O)(=O)C2CC2)NC(=O)[C@@H]2C[C@@H](Oc3nc(OCC(F)F)cc4c(Cl)cccc34)CN2C(=O)[C@@H](NC(=O)OC(C)(C)C(C)(F)F)[C@H](C)C1` [Compound 1111, 3,3-difluoro-2-methylbutan-2-yl((2R,6S,7R,9S,13aS,14aR,16aS,Z)-2-((5-chloro-3-(2,2-difluoroethoxyl)isoquinolin-1-yl)oxy)-14a-((cyclopropylsulfonyl)carbamoyl)-7,9-dimethyl-5,16-dioxo-1,2,3,5,6,7,8,9,10,11,13a,14,14a,15,16,16a-hexadecahydrocyclopropa[e]pyrrolo[1,2-a][1,4]diazacyclopentadecin-6-yl)carbamate], the EC50 in assay [1] and in assay [2] was < 5.46 nM in each case.

For `C[C@@H]1CC/C=C\[C@@H]2C[C@@]2(C(=O)NS(=O)(=O)C2CC2)NC(=O)[C@@H]2C[C@@H](Oc3nc(OCC(F)F)cc4c(Cl)cccc34)CN2C(=O)[C@@H](NC(=O)OC(C)(C)C(C)(F)F)[C@H](C)C1` [Compound 1112, 3,3-difluoro-2-methylbutan-2-yl((2R,6S,7R,9R,13aS,14aR,16aS,Z)-2-((5-chloro-3-(2,2-difluoroethoxyl)isoquinolin-1-yl)oxy)-14a-((cyclopropylsulfonyl)carbamoyl)-7,9-dimethyl-5,16-dioxo-1,2,3,5,6,7,8,9,10,11,13a,14,14a,15,16,16a-hexadecahydrocyclopropa[e]pyrrolo[1,2-a][1,4]diazacyclopentadecin-6-yl)carbamate], the EC50 in assay [1] and in assay [2] was < 5.46 nM in each case.

With `COCCOc1cc2c(Cl)cccc2c(O[C@@H]2C[C@H]3C(=O)N[C@]4(C(=O)NS(=O)(=O)C5(C)CC5)C[C@H]4/C=C\CC[C@H](C)C[C@@H](C)[C@H](NC(=O)OC(C)(C)C(F)(F)F)C(=O)N3C2)n1` [Compound 1113, 1,1,1-trifluoro-2-methylpropan-2-yl((2R,6S,7R,9S,13aS,14aR,16aS,Z)-2-((5-chloro-3-(2-methoxyethoxyl)isoquinolin-1-yl)oxy)-7,9-dimethyl-14a-(((1-methylcyclopropyl)sulfonyl)carbamoyl)-5,16-dioxo-1,2,3,5,6,7,8,9,10,11,13a,14,14a,15,16,16a-hexadecahydrocyclopropa[e]pyrrolo[1,2-a][1,4]diazacyclopentadecin-6-yl)carbamate], the concentration for a half-maximal effect (EC50) in assay [1] and in assay [2] was < 5.46 nM each time.

As to `COCCOc1cc2c(Cl)cccc2c(O[C@@H]2C[C@H]3C(=O)N[C@]4(C(=O)NS(=O)(=O)C5(C)CC5)C[C@H]4/C=C\CC[C@H](C)C[C@@H](C)[C@H](NC(=O)OC(C)(C)C(C)(F)F)C(=O)N3C2)n1` [Compound 1115, 3,3-difluoro-2-methylbutan-2-yl((2R,6S,7R,9S,13aS,14aR,16aS,Z)-2-((5-chloro-3-(2-methoxyethoxyl)isoquinolin-1-yl)oxy)-7,9-dimethyl-14a-(((1-methylcyclopropyl)sulfonyl)carbamoyl)-5,16-dioxo-1,2,3,5,6,7,8,9,10,11,13a,14,14a,15,16,16a-hexadecahydrocyclopropa[e]pyrrolo[1,2-a][1,4]diazacyclopentadecin-6-yl)carbamate], the concentration for a half-maximal effect (EC50) in assay [1] and in assay [2] was < 5.46 nM throughout.

For `COCCOc1cc2c(Cl)cccc2c(O[C@@H]2C[C@H]3C(=O)N[C@]4(C(=O)NS(=O)(=O)C5(C)CC5)C[C@H]4/C=C\CC[C@@H](C)C[C@@H](C)[C@H](NC(=O)OC(C)(C)C(C)(F)F)C(=O)N3C2)n1` [Compound 1116, 3,3-difluoro-2-methylbutan-2-yl((2R,6S,7R,9R,13aS,14aR,16aS,Z)-2-((5-chloro-3-(2-methoxyethoxyl)isoquinolin-1-yl)oxy)-7,9-dimethyl-14a-(((1-methylcyclopropyl)sulfonyl)carbamoyl)-5,16-dioxo-1,2,3,5,6,7,8,9,10,11,13a,14,14a,15,16,16a-hexadecahydrocyclopropa[e]pyrrolo[1,2-a][1,4]diazacyclopentadecin-6-yl)carbamate], the 50% effective concentration (EC50) in assay [1] and in assay [2] was < 5.46 nM throughout.

Regarding `COCCOc1cc2c(Cl)cccc2c(O[C@@H]2C[C@H]3C(=O)N[C@]4(C(=O)NS(=O)(=O)C5(C)CC5)C[C@H]4/C=C\CC[C@H](C)C[C@@H](C)[C@H](NC(=O)OC(C)(C)C)C(=O)N3C2)n1` [Compound 1117, tert-butyl ((2R,6S,7R,9S,13aS,14aR,16aS,Z)-2-((5-chloro-3-(2-methoxyethoxyl)isoquinolin-1-yl)oxy)-7,9-dimethyl-14a-(((1-methylcyclopropyl)sulfonyl)carbamoyl)-5,16-dioxo-1,2,3,5,6,7,8,9,10,11,13a,14,14a,15,16,16a-hexadecahydrocyclopropa[e]pyrrolo[1,2-a][1,4]diazacyclopentadecin-6-yl)carbamate], the EC50 in assay [1] and in assay [2] was < 5.46 nM throughout.

Consider `COCCOc1cc2c(Cl)cccc2c(O[C@@H]2C[C@H]3C(=O)N[C@]4(C(=O)NS(=O)(=O)C5(C)CC5)C[C@H]4/C=C\CC[C@@H](C)C[C@@H](C)[C@H](NC(=O)OC(C)(C)C)C(=O)N3C2)n1` [Compound 1118, tert-butyl ((2R,6S,7R,9R,13aS,14aR,16aS,Z)-2-((5-chloro-3-(2-methoxyethoxyl)isoquinolin-1-yl)oxy)-7,9-dimethyl-14a-(((1-methylcyclopropyl)sulfonyl)carbamoyl)-5,16-dioxo-1,2,3,5,6,7,8,9,10,11,13a,14,14a,15,16,16a-hexadecahydrocyclopropa[e]pyrrolo[1,2-a][1,4]diazacyclopentadecin-6-yl)carbamate], for which the EC50 in assay [1] and in assay [2] was < 5.46 nM in each case.
